Earlier results on seven compounds are cited in patent US6642219B1, “Progestogen-antiprogestogen regimens” (Akzo Nobel N.V., priority 1997, dated 2003).

Data set [1] relates to progestogenic activity.
Data set [2] addresses T1, progesterone receptor (Homo sapiens, UniProt P06401).
T1 sequence (P06401 1-933): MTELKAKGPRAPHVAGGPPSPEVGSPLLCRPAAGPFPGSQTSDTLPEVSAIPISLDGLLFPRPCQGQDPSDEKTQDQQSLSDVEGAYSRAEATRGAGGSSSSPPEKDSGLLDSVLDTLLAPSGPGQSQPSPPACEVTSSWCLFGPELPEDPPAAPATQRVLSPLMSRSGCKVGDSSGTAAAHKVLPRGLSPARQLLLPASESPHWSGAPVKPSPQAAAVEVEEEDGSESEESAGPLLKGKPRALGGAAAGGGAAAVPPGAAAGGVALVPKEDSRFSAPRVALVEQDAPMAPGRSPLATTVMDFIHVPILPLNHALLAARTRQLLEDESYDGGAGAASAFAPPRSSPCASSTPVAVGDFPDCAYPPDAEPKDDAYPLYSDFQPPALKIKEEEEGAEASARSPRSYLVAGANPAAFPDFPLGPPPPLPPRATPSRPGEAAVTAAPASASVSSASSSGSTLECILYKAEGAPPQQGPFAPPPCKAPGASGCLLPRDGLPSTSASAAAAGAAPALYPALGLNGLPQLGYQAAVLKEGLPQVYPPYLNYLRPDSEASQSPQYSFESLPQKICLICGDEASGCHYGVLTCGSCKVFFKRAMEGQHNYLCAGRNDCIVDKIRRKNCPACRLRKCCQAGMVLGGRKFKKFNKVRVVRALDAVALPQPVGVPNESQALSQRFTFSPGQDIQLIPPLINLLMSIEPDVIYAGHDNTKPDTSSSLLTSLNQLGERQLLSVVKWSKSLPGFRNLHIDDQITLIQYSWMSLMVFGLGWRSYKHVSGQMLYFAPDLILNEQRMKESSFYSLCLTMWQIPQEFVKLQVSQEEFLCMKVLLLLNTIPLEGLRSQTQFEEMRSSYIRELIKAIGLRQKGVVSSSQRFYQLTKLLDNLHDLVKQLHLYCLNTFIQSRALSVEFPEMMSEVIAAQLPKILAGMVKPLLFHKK

The conditions of data set [3]: in vivo.
[4] abbreviates: based on practically applied doses.

On to `C#C[C@]1(O)CC[C@H]2[C@@H]3CCC4=CC(=O)CC[C@@H]4[C@H]3C(=C)C[C@@]21CC` [3-keto-desogestrel], for which the “progestogenic activity, compared among each other” value in data set [1] (setting [4]) is “relatively equipotent”.
Consider `C#C[C@]1(O)C=C[C@H]2[C@@H]3CCC4=CC(=O)CC[C@@H]4[C@H]3CC[C@@]21CC` [Gestodene], for which the “progestogenic potency relative to levonorgestrel, desogestrel and 3-keto-desogestrel” value in data set [1] (setting [4]) was “approximately 1.5 times”.
For the compound `C#CC1(O)CC[C@H]2[C@@H]3CCC4=CC(=O)CC[C@@H]4[C@H]3CC[C@@]21CC` (stereo partly drawn) [Norgestrel], in data set [1], the “progestogenic potency relative to levonorgestrel” value is recorded as “about one-half”.
In general, half-life refers to the time in which the quantity being followed falls by half. On to `C[C@@H]1C[C@@H]2C(=C3CCC(=O)C=C31)[C@@H](c1ccc(N(C)C)cc1)C[C@@]1(C)[C@H]2CC[C@@]12CCCO2` [Org 31710, (6α,11β,17β)-11-(4-dimethylaminophenyl)-6-methyl-4′,5′-dihydrospiro-[estra-4,9-diene-17,2′-(3′H)-furan]-3-one], for which the “anti-progestogen potency compared with RU 486” value in data set [2] is recorded as “somewhat more potent”. In addition, the half-life in data set [3] was 50 h.
`CC(=O)c1ccc(C2CC3(C)C(CCC34OCC=C4C)C3CCC4=CC(=O)CCC4=C23)cc1` (stereo not drawn) [Org 33628, (11β,17α)-11-(4-acetylphenyl)-17,23-epoxy-19,24-dinorchola-4,9,20-trien-3-one]: the “anti-progestogen potency compared with RU 486” value in data set [2] is “somewhat more potent”. In addition, the half-life result in data set [3] was “approximately 15 hours”.
`CC#C[C@]1(O)CC[C@H]2[C@@H]3CCC4=CC(=O)CCC4=C3[C@@H](c3ccc(N(C)C)cc3)C[C@@]21C` [RU 486, (11β,17β)-11-[4-(demethylamino)-phenyl]-17-hydroxy-17-(1-propynyl)esta-4,9diene-3-one]: the half-life in data set [3] is roughly 20 h.
On to `C#C[C@]1(O)CC[C@H]2[C@@H]3CCC4=CCCC[C@@H]4[C@H]3C(=C)C[C@@]21CC` [desogestrel, 13-ethyl-11-methylene-18,19-di-nor-17α-pregn-4en-20-yn-17-ol], for which, in data set [1] (setting [4]), the “progestogenic activity, compared among each other” value is on record as “relatively equipotent”.
